ChEMBL document CHEMBL5523689, “Synthesis and antimicrobial studies of cadasides analogues via on-resin esterification” (2024)

How the values were obtained:
Assay type in all cases: functional
Staphylococcus aureus [1] = test: Antibacterial activity against […] Staphylococcus aureus ATCC25923 by broth microdilution method
Staphylococcus aureus [2] = test: Antibacterial activity against methicillin-resistant Staphylococcus aureus ATCC43300 by broth microdilution method
Escherichia coli = test: Antibacterial activity against Escherichia coli ATCC25922 by broth microdilution method
Pseudomonas aeruginosa = test: Antibacterial activity against Pseudomonas aeruginosa ATCC27853 by broth microdilution method
Bacillus pumilus = test: Antibacterial activity against Bacillus pumilus ATCC63202 by broth microdilution method

Q: Which MIC (Staphylococcus aureus [1]) does the source give for CCCCCCCCCC(=O)N[C@@H](Cc1c[nH]c2ccccc12)C(=O)N[C@H](CC(N)=O)C(=O)N[C@@H](CC(=O)O)C(=O)N[C@@H]1C(=O)NCC(=O)N[C@@H](CCCN)C(=O)N[C@@H](CC(=O)O)C(=O)N[C@H](C)C(=O)N[C@@H](CC(=O)O)C(=O)NCC(=O)N[C@H](CO)C(=O)N[C@@H]([C@H](C)CC(=O)O)C(=O)N[C@@H](CC(=O)c2ccccc2N)C(=O)O[C@@H]1C here?
A: The MIC was at most 5 µg/mL.

Q: And the MIC (Staphylococcus aureus [2])?
A: Its MIC is at most 5 µg/mL.

Q: What about the MIC (Escherichia coli) of the same compound?
A: The MIC was at most 5 µg/mL.

Q: And the MIC (Pseudomonas aeruginosa)?
A: Its MIC is at most 5 µg/mL.

Q: What about the MIC (Bacillus pumilus) of the same compound?
A: The MIC was at most 5 µg/mL.

Q: What does the source list for CCCCCCCCC(=O)NC[C@@H](C)C(=O)NCC(=O)N[C@H](CCC(=O)O)C(=O)N[C@@H](Cc1ccc(O)cc1)C(=O)N[C@@H]1C(=O)N[C@H]([C@H](C)CC)C(=O)N[C@@H](CC(=O)O)C(=O)N[C@@H]([C@@H](O)C(=O)OC)C(=O)N2CCC[C@H]2C(=O)NCC(=O)N[C@H](CCC(=O)O)C(=O)N[C@@H](CCC(=O)O)C(=O)N(C)CC(=O)O[C@@H]1C?
A: MIC (Staphylococcus aureus [1]): ≥ 128 µg/mL; MIC (Staphylococcus aureus [2]): ≥ 128 µg/mL; MIC (Escherichia coli): ≥ 128 µg/mL; MIC (Pseudomonas aeruginosa): ≥ 128 µg/mL; MIC (Bacillus pumilus): ≥ 128 µg/mL

Q: Which MIC (Staphylococcus aureus [1]) does the source give for CCCCCCCCCC(=O)NC[C@@H](C)C(=O)NCC(=O)N[C@H](CCC(=O)O)C(=O)N[C@@H](Cc1ccc(O)cc1)C(=O)N[C@@H]1C(=O)N[C@H]([C@H](C)CC)C(=O)N[C@@H](CC(=O)O)C(=O)N[C@@H]([C@@H](O)C(=O)O)C(=O)N2CCC[C@H]2C(=O)NCC(=O)N[C@H](CCC(=O)O)C(=O)N[C@@H](CCC(=O)O)C(=O)N(C)CC(=O)O[C@@H]1C here?
A: Its MIC is at least 128 µg/mL.

Q: What about the MIC (Staphylococcus aureus [2]) of the same compound?
A: The MIC was at least 128 µg/mL.

Q: What about the MIC (Escherichia coli) of the same compound?
A: The MIC was at least 128 µg/mL.

Q: And the MIC (Pseudomonas aeruginosa)?
A: The MIC was at least 128 µg/mL.

Q: And the MIC (Bacillus pumilus)?
A: The MIC was at least 128 µg/mL.

Q: CCCCCCCCC(=O)NC[C@@H](C)C(=O)NCC(=O)N[C@H](CCC(=O)O)C(=O)N[C@@H](Cc1ccc(O)cc1)C(=O)N[C@@H]1C(=O)N[C@H]([C@H](C)CC)C(=O)N[C@@H](CC(=O)O)C(=O)N[C@@H]([C@@H](O)C(=O)O)C(=O)N2CCC[C@H]2C(=O)NCC(=O)N[C@H](CCC(=O)O)C(=O)N[C@@H](CCC(=O)O)C(=O)N(C)CC(=O)O[C@@H]1C was tested. Which MIC (Staphylococcus aureus [1]) did it give?
A: Its MIC is at least 128 µg/mL.

Q: What about the MIC (Staphylococcus aureus [2]) of the same compound?
A: Its MIC is at least 128 µg/mL.

Q: What about the MIC (Escherichia coli) of the same compound?
A: Its MIC is at least 128 µg/mL.

Q: What about the MIC (Pseudomonas aeruginosa) of the same compound?
A: The MIC was at least 128 µg/mL.

Q: What about the MIC (Bacillus pumilus) of the same compound?
A: The MIC was at least 128 µg/mL.

Q: With CCCCCCCCCC(=O)NC[C@@H](C)C(=O)NCC(=O)N[C@H](CCC(=O)O)C(=O)N[C@@H](Cc1ccc(O)cc1)C(=O)N[C@@H]1C(=O)N[C@H]([C@H](C)CC)C(=O)N[C@@H](CC(=O)O)C(=O)N[C@@H]([C@@H](O)C(=O)OC)C(=O)N2CCC[C@H]2C(=O)NCC(=O)N[C@H](CCC(=O)O)C(=O)N[C@@H](CCC(=O)O)C(=O)N(C)CC(=O)O[C@@H]1C as the compound, how does the MIC (Staphylococcus aureus [1]) read?
A: The MIC was at least 128 µg/mL.

Q: What about the MIC (Staphylococcus aureus [2]) of the same compound?
A: Its MIC is at least 128 µg/mL.

Q: And the MIC (Escherichia coli)?
A: Its MIC is at least 128 µg/mL.

Q: And the MIC (Pseudomonas aeruginosa)?
A: The MIC was at least 128 µg/mL.

Q: And the MIC (Bacillus pumilus)?
A: The MIC was at least 128 µg/mL.

Q: Which MIC (Staphylococcus aureus [1]) does the source give for CCCCCCCC(=O)NC[C@@H](C)C(=O)NCC(=O)N[C@H](CCC(=O)O)C(=O)N[C@@H](Cc1ccc(O)cc1)C(=O)N[C@@H]1C(=O)N[C@H]([C@H](C)CC)C(=O)N[C@@H](CC(=O)O)C(=O)N[C@@H](CC(=O)O)C(=O)N2CCC[C@H]2C(=O)NCC(=O)N[C@H](CCC(=O)O)C(=O)N[C@@H](CCC(=O)O)C(=O)N(C)CC(=O)O[C@@H]1C here?
A: The MIC was at least 128 µg/mL.

Q: What about the MIC (Staphylococcus aureus [2]) of the same compound?
A: Its MIC is at least 128 µg/mL.

Q: And the MIC (Escherichia coli)?
A: The MIC was at least 128 µg/mL.

Q: And the MIC (Pseudomonas aeruginosa)?
A: Its MIC is at least 128 µg/mL.

Q: What about the MIC (Bacillus pumilus) of the same compound?
A: Its MIC is at least 128 µg/mL.
